According to paper PMC2830424, “The Anopheles gambiae Odorant Binding Protein 1 (AgamOBP1) Mediates Indole Recognition in the Antennae of Female Mosquitoes” (PLoS ONE, 2010):
pKd: −log10 of the molar value.

Experiments:
[1] = molecular target: T1, AgamOBP1 (Odorant Binding Protein 1) (Anopheles gambiae, UniProt Q8T6S0); experiment: fluorescent reporter dye of the displacement assay (no Kd reported); set-up: gene OBP-1; recombinant OBP1 (r-OBP1)
T1 sequence (Q8T6S0 20-144): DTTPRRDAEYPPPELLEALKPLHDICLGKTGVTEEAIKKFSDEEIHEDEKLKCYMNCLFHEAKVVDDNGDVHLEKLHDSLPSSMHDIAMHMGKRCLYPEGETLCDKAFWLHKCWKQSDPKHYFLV

[2] = molecular target: T1, AgamOBP1 (Odorant Binding Protein 1); experiment: 3H-indole scintillation proximity (Ni-NTA FlashPlate) binding; confirmed by 1-NPN fluorescence displacement; set-up: gene OBP-1; purified 6xHis tagged r-OBP1
Excerpt: 3H-indole scintillation proximity (Ni-NTA FlashPlate) binding; confirmed by 1-NPN fluorescence displacement on AgamOBP1 (Odorant Binding Protein 1) | Binding curve of ^3H indole to r-OBP1 in Ni-NTA FlashPlates.

[3] = molecular target: T1, AgamOBP1 (Odorant Binding Protein 1); experiment: fluorescence displacement of 1-NPN (screening assay); set-up: gene OBP-1; recombinant OBP1 (r-OBP1)
Excerpt: fluorescence displacement of 1-NPN (screening assay) on AgamOBP1 (Odorant Binding Protein 1) | 3-methyl indole (skatole) […] also bound to r-OBP1 but with an apparently lower affinity

Q: For c1ccc(Nc2cccc3ccccc23)cc1 [1-NPN, N-Phenyl-1-Naphthylamine], which “fluorescent reporter dye displacement” value [1] is on record?
A: The value was “increasing concentrations of indole displaced more 1-NPN dye from the AgamOBP1 binding pocket”.

Q: How did the pKd [2] turn out when c1ccc2[nH]ccc2c1 [indole] was run?
A: Its pKd is 5.64.

Q: For Cc1c[nH]c2ccccc12 [3-methyl indole], which “fluorescence displacement of 1-NPN (screening assay)” value [3] is on record?
A: Its value is 3-methyl indole (skatole) [...] also bound to r-OBP1 but with an apparently lower affinity.
